Measurements taken from US6054441A, “Oxypurine nucleosides and their congeners, and acyl derivatives thereof, for improvement of hematopoiesis” (priority 1995, dated 2000).

Columns and labels:
Assay type in all cases: in vivo, Balb/C mice
[1] = system: hematopoiesis in normal mice; test: Hematopoiesis in normal mice (Example 44)
Experimental: Normal, otherwise untreated, female Balb/C mice weighing approximately 20 grams each received a total of 4 or 9 0.4 ml intraperitoneal injections (one per day) of either Tween-80 (0.2%) (controls), palmitoylguanosine (2.5 μmoles/mouse/day), or palmitoyldeoxyinosine (2.5 μmoles/mouse/day). Twenty-four hours after the 4th or 9th treatment, groups of 5 or 6 animals from each of the 3 groups were bled and then sacrificed by cervical dislocation. Spleens were removed and weighed, and complete blood cell counts performed.

[2] = system: bone marrow cells; test: Colony forming units in bone marrow of mice recovering from cyclophosphamide (Example 40); conditions: 2.5 μmoles/mouse/day i.p.
Experimental: Seventy-two Balb/C female mice weighing approximately 20 grams each were given cyclophosphamide (275 mg/kg) by intraperitoneal (i.p.) injection. Twenty-four hours later and each day thereafter, mice received a 0.4 ml i.p. injection of either physiological saline (control) or palmitoylguanosine (2.5 μmoles/mouse/day in 0.2% Tween 80). On days 3, 5, 7, and 10 following CP administration 6 animals from each group were sacrificed by cervical dislocation, and the left femur of each animal obtained by sterile means. The bone marrow cells were then flushed from the femurs with McCoy's 5a Modified medium using a 23-gauge needle. Cells from femurs in the same group were pooled, dispersed by briefly vortexing, and counted using a hemocytometer. Cell suspensions were added to McCoy's Modified 5a medium containing 15% bovine calf serum, 1x Kanamycin, 0.3% agar, and 3% endotoxin-stimulated serum. […] Each group was plated in quintuplicate. After 7 days in culture (at 37° in 5% CO2 and humidified air) aggregates of 50 cells or more ("colonies") were counted using a dissecting microscope at 25x.

[3] = system: irradiated mice; test: Survival of irradiated mice (Example 39); conditions: for mice surviving 30 days after irradiation over number irradiated: 50 mg/kg i.p., 6 days after irradiation
Experimental: Thirty female Balb/C mice weighing 20 grams each were irradiated with Cobalt 60 gamma radiation at a dose rate of 7.3 Rads per minute. The total dose was either 700, 725, or 750 Rads. Twenty-four hours later and each day thereafter for a total of 6 days, these mice received an i.p. injection of either physiological saline (controls) or 50 mg/kg of palmitoylguanosine. The number of animals surviving in each group was observed over a 30 day period.

[4] = system: hematopoietic recovery after cyclophosphamide; test: Hematopoietic recovery after cyclophosphamide, acyl chain length (Example 38); conditions: day 7
[5] = system: hematopoietic recovery after cyclophosphamide; test: Hematopoietic recovery after cyclophosphamide (Example 47)
Experimental: Cyclophosphamide (CP) (275 mg/kg, i.p.) was administered to 48 Balb/C female mice weighing approximately 20 grams each. Twenty-four hours later and each day thereafter for a total of 6 days, mice were given a 0.4 ml i.p. injection of either physiological saline (controls), benzoylguanosine (2.5 μmoles/mouse/day in 0.2% Tween 80), or palmitoylguanosine (2.5 μmoles/mouse/day in 0.2% Tween 80). On days 7 and 10 following CP administration 8 animals from each of the 3 groups were bled and then were sacrificed by cervical dislocation. Spleens were removed and weighed, and complete blood cell counts performed.

[6] = system: hematopoietic recovery after cyclophosphamide; test: Hematopoietic recovery after cyclophosphamide (Example 50); conditions: day 5; 2 μmoles/mouse
Experimental: Cyclophosphamide (CP) (275 mg/kg, i.p.) was administered to 96 Balb/C female mice weighing approximately 20 grams each. Twenty-four hours later and each day thereafter mice were given a 0.4 ml i.p. injection of either Tween-80 (0.2%) (controls), palmitoyldeoxyguanosine (2 μmoles/mouse), palmitoyldeoxyinosine (2 μmoles/mouse), palmitoylacyclovir (2 μmoles/mouse), palmitoylarabinosylguanine (2 μmoles/mouse), palmitoylarabinosylhypoxanthine (2 μmoles/mouse), monopalmitoylguanosine 2',3'-acyclic dialcohol (2 μmoles/mouse), and palmitoyl-8-thioguanosine (2 μmoles/mouse). On days 5 and 7 following CP administration 6 animals in each of the 8 groups were bled and then sacrificed by cervical dislocation. Spleens were removed and weighed, and complete blood cell counts performed.

[7] = system: hematopoietic recovery after cyclophosphamide; test: Comparative dose-response, hematopoietic recovery after cyclophosphamide (Example 53)
Experimental: Cyclophosphamide (CP) (275 mg/kg, i.p.) was administered to 96 Balb/C female mice weighing approximately 20 grams each. Twenty-four hours later and each day thereafter mice were given a 0.4 ml i.p. injection of either physiological saline (controls), palmitoylguanosine at one of four different doses: 0.2, 0.4, 1.0 or 2.0 μmoles/mouse), or palmitoyldeoxyguanosine at a dose of 1.0 μmoles/mouse. On days 5 and 7 following CP administration 8 animals from each of the 6 groups were bled and then sacrificed by cervical dislocation. Spleens were removed and weighed, and complete blood cell counts performed.

[8] = system: hematopoietic recovery after 5-fluorouracil; test: Hematopoietic recovery after 5-fluorouracil (Example 43)
Experimental: 5-fluorouracil (5-FU) (150 mg/kg,i.p.) was administered to fifty-four Balb/C female mice weighing approximately 20 grams each. Twenty-four hours later and each day thereafter for a total of 7 days, mice were given a 0.4 ml i.p. injection of either physiological saline (controls) or palmitoylguanosine (2.5 μmoles/mouse/day in 0.2% Tween 80). On days 8, 10 and 12 following administration of 5-FU nine animals from each group were bled and then sacrificed by cervical dislocation. Spleens were removed and weighed, and complete blood cell counts performed.

[9] = day 5, palmitoylguanosine 2.0, palmitoyldeoxyguanosine 1.0 μmoles/mouse
[10] = day 7, palmitoylguanosine 1.0 and 2.0, palmitoyldeoxyguanosine 1.0 μmoles/mouse

Question: Which results are given for `CCCCCCCCCCCCCCCC(=O)OC[C@H]1O[C@@H](n2cnc3c(=O)[nH]c(N)nc32)[C@H](O)[C@@H]1O`?
Answer: spleen weight ([1]; day 5, 2.5 μmoles/mouse/day i.p.): significantly greater; total leukocyte counts ([1]; day 10, vs Tween 80): significantly elevated; colony-forming units ([2]; day 3): 645 ± 26 colonyforming units per femur; colony-forming units ([2]; day 5): 2327 ± 121 colonyforming units per femur; colony-forming units ([2]; day 7): 1328 ± 140 colonyforming units per femur; colony-forming units ([2]; day 10): 647 ± 25 colonyforming units per femur; mice surviving ([3]; 2 higher radiation doses, 30 days): all of the mice treated with palmitoylguanosine survived; mice surviving 30 days after irradiation over number irradiated ([3]; 725 R): 5/5; mice surviving 30 days after irradiation over number irradiated ([3]; 750 R): 5/5; survival ([3]; pretreatment prior to irradiation): improved survival; white blood cell (WBC) counts [4]: greatest effect on total WBC counts; spleen weight ([4]; guanosine 5, acyl derivatives 2.5 μmoles/mouse/day i.p.): significantly larger spleens; Neutrophils ([5]; day 7, 2.5 μmoles/mouse/day): significantly elevated; spleen weight ([5]; day 7, 2.5 μmoles/mouse/day): significantly elevated; total white blood cells ([5]; day 7, 2.5 μmoles/mouse/day): significantly elevated; platelet number ([5]; day 10): significantly greater; spleen weight [6]: significantly elevated; total neutrophil counts ([7]; day 5, palmitoylguanosine 1.0 μmoles/mouse): significantly increased; spleen weight [7, 9]: significantly elevated; total neutrophil counts [7, 9]: significantly elevated; white blood cell counts [7, 9]: significantly elevated; spleen weight [7, 10]: significantly elevated; total neutrophil counts [7, 10]: significantly elevated; white blood cell counts [7, 10]: significantly elevated; Platelets ([8]; day 8, 2.5 μmoles/mouse/day i.p., vs control): significantly greater; Platelets ([8]; day 10, vs control): greater numbers of platelets; spleen size ([8]; day 10, vs saline): significantly larger; number of neutrophils, fold greater than control ([8]; day 12): 3 fold; spleen weight ([8]; day 12, vs control): more than double
